Laboratory results: paper PMC5218480 (PLoS ONE, 2017)

System: MV-4-11 cells
Test: Gene expression microarray analysis (Affymetrix PrimeView) and GSEA
Type: cell-based, human
Design: RFU PODN (11730768_x_at) / Fold change /veh PODN (11730768_x_at) / RFU LINC00158 (11744669_a_at) / Fold change /veh LINC00158 (11744669_a_at) / RFU DUSP10 (11751237_a_at) / Fold change /veh DUSP10 (11751237_a_at) / RFU ID3 (11757404_x_at) / Fold change /veh ID3 (11757404_x_at) / RFU PLEKHG5 (11737974_s_at) / Fold change /veh PLEKHG5 (11737974_s_at) / RFU LRRC4B (11730491_at) / Fold change /veh LRRC4B (11730491_at) / RFU GIMAP4 (11747438_a_at) / Fold change /veh GIMAP4 (11747438_a_at) / RFU KRT8 (11758183_x_at) / Fold change /veh KRT8 (11758183_x_at) / RFU CNN1 (11734310_a_at) / Fold change /veh CNN1 (11734310_a_at) / RFU VPS37D (11726825_at) / Fold change /veh VPS37D (11726825_at) / RFU C10orf10 (11716522_x_at) / Fold change /veh C10orf10 (11716522_x_at) / RFU KIR2DL2 /// KIR2DL4 /// KIR2DL5A /// KIR2DL5B /// KIR2DS1 /// KIR2DS2 /// KIR2DS3 /// KIR2DS4 /// KIR3DL3 /// KIR3DL3 /// KIR3DS1 (11738374_at) / Fold change /veh KIR2DL2 /// KIR2DL4 /// KIR2DL5A /// KIR2DL5B /// KIR2DS1 /// KIR2DS2 /// KIR2DS3 /// KIR2DS4 /// KIR3DL3 /// KIR3DL3 /// KIR3DS1 (11738374_at) / RFU C1QL1 (11718748_at) / Fold change /veh C1QL1 (11718748_at) / RFU TMPRSS4 (11747572_a_at) / Fold change /veh TMPRSS4 (11747572_a_at) / RFU HAMP (11756126_x_at) / Fold change /veh HAMP (11756126_x_at) / RFU RNFT2 (11725882_a_at) / Fold change /veh RNFT2 (11725882_a_at) / RFU NR4A2 (11747474_a_at) / Fold change /veh NR4A2 (11747474_a_at) / RFU ABCC12 (11746883_a_at) / Fold change /veh ABCC12 (11746883_a_at) / RFU TMEM136 (11760407_x_at) / Fold change /veh TMEM136 (11760407_x_at) / RFU CLDN22 /// WWC2 (11732394_at) / Fold change /veh CLDN22 /// WWC2 (11732394_at) / RFU HLA-DPB1 (11760878_x_at) / Fold change /veh HLA-DPB1 (11760878_x_at) / RFU SPINT1 (11716480_a_at) / Fold change /veh SPINT1 (11716480_a_at) / RFU GAP43 (11754022_s_at) / Fold change /veh GAP43 (11754022_s_at) / RFU A4GNT (11735810_at) / Fold change /veh A4GNT (11735810_at) / RFU PRB3 (11715151_x_at) / Fold change /veh PRB3 (11715151_x_at) / RFU TUBB4B (11761932_at) / Fold change /veh TUBB4B (11761932_at) / RFU CAPN14 (11732068_a_at) / Fold change /veh CAPN14 (11732068_a_at) / RFU TMCC2 (11721928_a_at) / Fold change /veh TMCC2 (11721928_a_at) / RFU IRGQ (11745062_a_at) / Fold change /veh IRGQ (11745062_a_at) / RFU FAM174B (11720279_a_at) / Fold change /veh FAM174B (11720279_a_at) / RFU TMPRSS4 (11748680_a_at) / Fold change /veh TMPRSS4 (11748680_a_at) / RFU FAM212B (11763350_a_at) / Fold change /veh FAM212B (11763350_a_at) / RFU PLEKHG5 (11743358_a_at) / Fold change /veh PLEKHG5 (11743358_a_at) / RFU ZSCAN30 (11745921_a_at) / Fold change /veh ZSCAN30 (11745921_a_at) / RFU CMKLR1 (11741424_a_at) / Fold change /veh CMKLR1 (11741424_a_at) / RFU LOC101060620 /// MAPK8IP1 (11723275_at) / Fold change /veh LOC101060620 /// MAPK8IP1 (11723275_at) / RFU SPTSSB (11747773_x_at) / Fold change /veh SPTSSB (11747773_x_at) / RFU PRSS12 (11739890_at) / Fold change /veh PRSS12 (11739890_at) / RFU BIN1 (11741810_x_at) / Fold change /veh BIN1 (11741810_x_at) / RFU WNT11 (11732464_a_at) / Fold change /veh WNT11 (11732464_a_at) / RFU C10orf10 (11716521_a_at) / Fold change /veh C10orf10 (11716521_a_at) / RFU C5orf56 (11738089_at) / Fold change /veh C5orf56 (11738089_at) / RFU CYB561 (11721691_x_at) / Fold change /veh CYB561 (11721691_x_at) / RFU ANKRD19P (11752326_a_at) / Fold change /veh ANKRD19P (11752326_a_at) / RFU OR2T12 /// OR2T33 /// OR2T8 (11738714_s_at) / Fold change /veh OR2T12 /// OR2T33 /// OR2T8 (11738714_s_at) / RFU VCAN (11748164_a_at) / Fold change /veh VCAN (11748164_a_at) / RFU JSRP1 (11732532_at) / Fold change /veh JSRP1 (11732532_at) / RFU KRTAP10-11 (11738290_x_at) / Fold change /veh KRTAP10-11 (11738290_x_at) / RFU MYO3A (11730013_a_at) / Fold change /veh MYO3A (11730013_a_at) / RFU EBF3 (11725865_a_at) / Fold change /veh EBF3 (11725865_a_at) / RFU CAMK2N1 (11719241_x_at) / Fold change /veh CAMK2N1 (11719241_x_at) / RFU C5orf56 (11738088_a_at) / Fold change /veh C5orf56 (11738088_a_at) / RFU OLFML3 (11715873_a_at) / Fold change /veh OLFML3 (11715873_a_at) / RFU LOC100653217 /// NTM (11731650_a_at) / Fold change /veh LOC100653217 /// NTM (11731650_a_at) / RFU MAPK11 (11762145_a_at) / Fold change /veh MAPK11 (11762145_a_at) / RFU FIZ1 (11724087_x_at) / Fold change /veh FIZ1 (11724087_x_at) / RFU OASL (11726364_x_at) / Fold change /veh OASL (11726364_x_at) / RFU SOX15 (11748057_x_at) / Fold change /veh SOX15 (11748057_x_at) / RFU CD79A (11719716_a_at) / Fold change /veh CD79A (11719716_a_at) / RFU HIST1H1D (11736915_at) / Fold change /veh HIST1H1D (11736915_at) / RFU CASKIN2 (11723855_a_at) / Fold change /veh CASKIN2 (11723855_a_at) / RFU LOC730098 (11760151_x_at) / Fold change /veh LOC730098 (11760151_x_at) / RFU OR4N2 (11742367_at) / Fold change /veh OR4N2 (11742367_at) / RFU PRRT2 (11749266_a_at) / Fold change /veh PRRT2 (11749266_a_at) / RFU SNX32 (11753110_a_at) / Fold change /veh SNX32 (11753110_a_at) / RFU CDHR5 (11726645_a_at) / Fold change /veh CDHR5 (11726645_a_at) / RFU RCAN1 (11760418_a_at) / Fold change /veh RCAN1 (11760418_a_at) / RFU FAM167A (11723789_a_at) / Fold change /veh FAM167A (11723789_a_at) / RFU FAM26E (11764081_at) / Fold change /veh FAM26E (11764081_at) / RFU ISYNA1 (11749810_s_at) / Fold change /veh ISYNA1 (11749810_s_at) / RFU ACY1 (11761880_at) / Fold change /veh ACY1 (11761880_at) / RFU 11764098_at / Fold change /veh 11764098_at / RFU SAMD14 (11745864_x_at) / Fold change /veh SAMD14 (11745864_x_at) / RFU NPB (11741838_a_at) / Fold change /veh NPB (11741838_a_at) / RFU TMPRSS6 (11731388_a_at) / Fold change /veh TMPRSS6 (11731388_a_at) / RFU KRTAP10-2 (11738614_at) / Fold change /veh KRTAP10-2 (11738614_at) / RFU ARHGAP8 /// PRR5-ARHGAP8 (11727945_x_at) / Fold change /veh ARHGAP8 /// PRR5-ARHGAP8 (11727945_x_at) / RFU KRTAP5-7 /// NADSYN1 (11734609_at) / Fold change /veh KRTAP5-7 /// NADSYN1 (11734609_at) / RFU RASL12 (11751679_a_at) / Fold change /veh RASL12 (11751679_a_at) / RFU CDKN2B (11736163_a_at) / Fold change /veh CDKN2B (11736163_a_at) / RFU PRF1 (11729649_at) / Fold change /veh PRF1 (11729649_at) / RFU, ZNF638 /// ZNF638-IT1 / Fold change vs veh, ZNF638 /// ZNF638-IT1 / RFU, PANK3 / Fold change vs veh, PANK3 / RFU, SH3YL1 / Fold change vs veh, SH3YL1 / RFU, ZEB2 / Fold change vs veh, ZEB2 / RFU, NRIP1 / Fold change vs veh, NRIP1 / RFU, PTTG1IP / Fold change vs veh, PTTG1IP / RFU, CAPN2 / Fold change vs veh, CAPN2 / RFU, MED14 / Fold change vs veh, MED14 / RFU, SNORA58 / Fold change vs veh, SNORA58 / RFU, C1orf63 / Fold change vs veh, C1orf63 / RFU, LRRFIP1 / Fold change vs veh, LRRFIP1 / RFU, NDUFAF7 / Fold change vs veh, NDUFAF7 / RFU, SLC12A2 / Fold change vs veh, SLC12A2 / RFU, IBTK / Fold change vs veh, IBTK / RFU, ESF1 / Fold change vs veh, ESF1 / Fold change vs veh, TMEM50B / RFU, TAOK1 / Fold change vs veh, TAOK1 / RFU, ACBD3 / Fold change vs veh, ACBD3 / RFU, TMA16 / Fold change vs veh, TMA16 / RFU, RWDD3 / Fold change vs veh, RWDD3 / RFU, BCAT1 / Fold change vs veh, BCAT1 / RFU, EDEM3 / Fold change vs veh, EDEM3 / RFU, TMEM33 / Fold change vs veh, TMEM33 / RFU, WDR75 / Fold change vs veh, WDR75 / RFU, AHCTF1 / Fold change vs veh, AHCTF1 / RFU, TFRC / Fold change vs veh, TFRC / RFU, ZDHHC17 / Fold change vs veh, ZDHHC17 / RFU, NOM1 / Fold change vs veh, NOM1 / RFU, ARL8B / Fold change vs veh, ARL8B / RFU, ZBTB11 / Fold change vs veh, ZBTB11 / RFU, TAMM41 / Fold change vs veh, TAMM41 / RFU, KIAA1704 /// LOC100996395 / Fold change vs veh, KIAA1704 /// LOC100996395 / RFU, ING1 / Fold change vs veh, ING1 / RFU, TRMT61B / Fold change vs veh, TRMT61B / RFU, FUBP3 / Fold change vs veh, FUBP3 / RFU, TP53 / Fold change vs veh, TP53 / RFU, TNKS2 / Fold change vs veh, TNKS2 / RFU, ZFP14 / Fold change vs veh, ZFP14 / RFU, ACTR2 / Fold change vs veh, ACTR2 / RFU, PPP3R1 / Fold change vs veh, PPP3R1 / RFU, PIK3R1 / Fold change vs veh, PIK3R1 / RFU, HNRNPA1 / Fold change vs veh, HNRNPA1 / RFU, RNF170 / Fold change vs veh, RNF170 / RFU, ZNF28 / Fold change vs veh, ZNF28 / RFU, RNGTT / Fold change vs veh, RNGTT / RFU, OGT / Fold change vs veh, OGT / RFU, BRD1 / Fold change vs veh, BRD1 / RFU, MARS / Fold change vs veh, MARS / RFU, ZNF655 / Fold change vs veh, ZNF655 / RFU, FAHD1 / Fold change vs veh, FAHD1 / RFU, BDP1 / Fold change vs veh, BDP1 / RFU, LRRCC1 / Fold change vs veh, LRRCC1 / RFU, ARID1A / Fold change vs veh, ARID1A / RFU, ZNF146 / Fold change vs veh, ZNF146 / RFU, ZNF330 / Fold change vs veh, ZNF330 / RFU, GPN3 / Fold change vs veh, GPN3 / RFU, C9orf123 / Fold change vs veh, C9orf123 / RFU, N4BP2L2 / Fold change vs veh, N4BP2L2 / RFU, ARFIP1 / Fold change vs veh, ARFIP1 / RFU, FAM179B / Fold change vs veh, FAM179B / RFU, BCL10 / Fold change vs veh, BCL10 / RFU, UHRF1BP1L / Fold change vs veh, UHRF1BP1L / RFU, BET1 / Fold change vs veh, BET1 / RFU, CNOT2 / Fold change vs veh, CNOT2 / RFU, ZNF268 / Fold change vs veh, ZNF268 / Fold change vs veh, ZNF507 / RFU, DGCR2 / Fold change vs veh, DGCR2 / RFU, WDSUB1 / Fold change vs veh, WDSUB1 / Fold change vs veh, HSP90B1 /// MIR3652 / RFU, ADSS / Fold change vs veh, ADSS / RFU, GK / Fold change vs veh, GK / RFU, ZNF148 / Fold change vs veh, ZNF148 / RFU, TAF9 / Fold change vs veh, TAF9 / RFU, SLC1A5 / Fold change vs veh, SLC1A5 / RFU, SLMO2 / Fold change vs veh, SLMO2 / RFU, ABCC4 / Fold change vs veh, ABCC4 / RFU, LOC101060439 /// RAP1B / Fold change vs veh, LOC101060439 /// RAP1B / RFU, RFX7 / Fold change vs veh, RFX7 / RFU, GTPBP10 / Fold change vs veh, GTPBP10 / RFU, CNEP1R1 / Fold change vs veh, CNEP1R1 / RFU, BIVM-ERCC5 /// ERCC5 / Fold change vs veh, BIVM-ERCC5 /// ERCC5 / RFU, ILF3 / Fold change vs veh, ILF3 / RFU 11762660_at / Fold change /veh 11762660_at / RFU VCAN (11757783_s_at) / Fold change /veh VCAN (11757783_s_at) / RFU DDX43 (11728927_at) / Fold change /veh DDX43 (11728927_at) / RFU KRT8 (11758188_x_at) / Fold change /veh KRT8 (11758188_x_at) / RFU NKD1 (11759106_at) / Fold change /veh NKD1 (11759106_at) / RFU SRD5A1 (11742802_a_at) / Fold change /veh SRD5A1 (11742802_a_at) / RFU TPSAB1 /// TPSB2 (11721975_s_at) / Fold change /veh TPSAB1 /// TPSB2 (11721975_s_at) / RFU GSTM3 (11746129_a_at) / Fold change /veh GSTM3 (11746129_a_at) / RFU IL23R (11737362_x_at) / Fold change /veh IL23R (11737362_x_at) / RFU TMEM51 (11727254_a_at) / Fold change /veh TMEM51 (11727254_a_at) / RFU PIWIL2 (11732686_x_at) / Fold change /veh PIWIL2 (11732686_x_at) / RFU ORM1 (11744905_x_at) / Fold change /veh ORM1 (11744905_x_at) / RFU CCDC152 (11743942_at) / Fold change /veh CCDC152 (11743942_at) / RFU ECM1 (11717891_a_at) / Fold change /veh ECM1 (11717891_a_at) / RFU IL23R (11748794_a_at) / Fold change /veh IL23R (11748794_a_at) / RFU TNFAIP8L3 (11732012_x_at) / Fold change /veh TNFAIP8L3 (11732012_x_at) / RFU MBOAT4 (11741988_at) / Fold change /veh MBOAT4 (11741988_at) / RFU 11764193_at / Fold change /veh 11764193_at / RFU TMEM53 (11763286_at) / Fold change /veh TMEM53 (11763286_at) / RFU MAGEB2 (11727129_at) / Fold change /veh MAGEB2 (11727129_at) / RFU TMEM200A (11744735_a_at) / Fold change /veh TMEM200A (11744735_a_at) / RFU CCDC152 (11751479_a_at) / Fold change /veh CCDC152 (11751479_a_at) / RFU FAM211A (11726209_a_at) / Fold change /veh FAM211A (11726209_a_at) / RFU RGS16 (11746705_a_at) / Fold change /veh RGS16 (11746705_a_at) / RFU VCAN (11755009_s_at) / Fold change /veh VCAN (11755009_s_at) / RFU RHOB (11743442_s_at) / Fold change /veh RHOB (11743442_s_at) / RFU RGS16 (11720943_a_at) / Fold change /veh RGS16 (11720943_a_at) / RFU RGS16 (11720944_at) / Fold change /veh RGS16 (11720944_at) / RFU, VPS4B / Fold change vs veh, VPS4B / RFU, CREB1 / Fold change vs veh, CREB1 / RFU, DNAJC13 / Fold change vs veh, DNAJC13 / RFU, GNAQ / Fold change vs veh, GNAQ / RFU, CDK5R1 / Fold change vs veh, CDK5R1 / RFU, ZRANB3 / Fold change vs veh, ZRANB3 / RFU, CUL4A / Fold change vs veh, CUL4A / RFU, CCNY / Fold change vs veh, CCNY / RFU, UFL1 / Fold change vs veh, UFL1 / RFU, COG3 / Fold change vs veh, COG3 / RFU, DIAPH2 / Fold change vs veh, DIAPH2 / RFU, SKA2 / Fold change vs veh, SKA2 / RFU, AFF3 / Fold change vs veh, AFF3 / RFU, LMF1 / Fold change vs veh, LMF1 / RFU, IPO11 / Fold change vs veh, IPO11 / RFU, DFFB / Fold change vs veh, DFFB / RFU, FOXP1 / Fold change vs veh, FOXP1 / RFU, CARD8 / Fold change vs veh, CARD8 / RFU, STRN3 / Fold change vs veh, STRN3 / RFU, ADK / Fold change vs veh, ADK / RFU, RASSF2 / Fold change vs veh, RASSF2 / RFU, WIPF1 / Fold change vs veh, WIPF1 / RFU, LARP1B / Fold change vs veh, LARP1B / RFU, RASA1 / Fold change vs veh, RASA1 / RFU, RB1 / Fold change vs veh, RB1 / RFU, PPFIA1 / Fold change vs veh, PPFIA1 / RFU, MAT2A / Fold change vs veh, MAT2A / RFU, CCT5 / Fold change vs veh, CCT5 / RFU, WDR92 / Fold change vs veh, WDR92 / RFU, CUX1 / Fold change vs veh, CUX1 / RFU, TTC7A / Fold change vs veh, TTC7A / RFU, TMEM135 / Fold change vs veh, TMEM135 / RFU, DEPTOR / Fold change vs veh, DEPTOR / RFU, CPM / Fold change vs veh, CPM / RFU, DNAJB6 / Fold change vs veh, DNAJB6 / RFU, CACNA2D3 / Fold change vs veh, CACNA2D3 / RFU, DTX4 / Fold change vs veh, DTX4 / RFU, TFCP2 / Fold change vs veh, TFCP2 / RFU, GMCL1 /// GMCL1P1 / Fold change vs veh, GMCL1 /// GMCL1P1 / RFU, AEBP2 / Fold change vs veh, AEBP2 / RFU, SNHG1 /// SNORD22 /// SNORD25 /// SNORD26 /// SNORD27 /// SNORD28 /// SNORD29 /// SNORD31 / Fold change vs veh, SNHG1 /// SNORD22 /// SNORD25 /// SNORD26 /// SNORD27 /// SNORD28 /// SNORD29 /// SNORD31 / Fold change (Aza/veh), C12orf56 (ProbeSet 11735607_a_at) / Fold change (ACY-1035/veh), C12orf56 (ProbeSet 11735607_a_at) / Fold change (Aza/veh), FGFR1OP (ProbeSet 11751329_s_at) / Fold change (ACY-1035/veh), FGFR1OP (ProbeSet 11751329_s_at) / Fold change (Aza/veh), VPS36 (ProbeSet 11739960_a_at) / Fold change (ACY-1035/veh), VPS36 (ProbeSet 11739960_a_at) / RFU SYPL1 (11715823_x_at) / Fold change /veh SYPL1 (11715823_x_at) / RFU IGFBP7 (11715501_s_at) / Fold change /veh IGFBP7 (11715501_s_at) / RFU REEP3 (11722064_at) / Fold change /veh REEP3 (11722064_at) / RFU IGLL1 (11728026_x_at) / Fold change /veh IGLL1 (11728026_x_at): dose or concentration left out as unconfirmed
Settings: ProbeSet 11753234_a_at; LIST B

Nc1ncn([C@@H]2O[C@H](CO)[C@@H](O)[C@H]2O)c(=O)n1 [azacitidine]
Fold change vs veh, TAMM41: 0.86
